In brackets after ≈: the same amount, converted by molar mass. Where two headings read alike, the source gives them in different places. Where only a bound is given, the exact number is not on record here.

For experiment [1], the system named is Bacteroides spp. spontaneous mutants. Conditions: B. fragilis ATCC 25285; CLSI QC range shown in parentheses; cited from earlier work.
For the next experiment, the system named is Bacteroides non fragilis. The experiment is described as follows: Agar dilution MIC, 29 clinical isolates. Type of experiment: cell-based, Bacteroides spp. As to conditions: for Mode: modal MIC.
The next experiment concerns Clostridium spp. Nature of the experiment: Agar dilution MIC, 10 clinical isolates. Type of experiment: cell-based. As to conditions: for Mode: modal MIC. For orientation: In agar dilution, organisms are placed on agar that contains the substance at set levels.
The test system of the next experiment is B. ovatus MMX 3503. The experiment is described as follows: Broth microdilution MIC (time-kill study). Format: cell-based, Bacteroides ovatus. A general note: Dilution methods test growth across graded concentrations, often in twofold steps.
The test system of experiment [2] is E. coli (ATCC 25922, ATCC 35218, MMX 1312). As to conditions: cited from earlier work.
In another experiment the test system is S. pyogenes ATCC 49399. Nature of the experiment: Time-kill assay. Format: cell-based, Streptococcus pyogenes. Conditions: 2×, 4×, 8× MIC; 2, 6, 24 hr.
For the next experiment, the system named is S. pneumoniae ATCC 49619. Conditions: cited from earlier work.
A further experiment deals with E. coli ATCC 25922. The experiment is described as follows: Time-kill assay. Type of experiment: cell-based, Escherichia coli. As to conditions: 2×, 4×, 8× MIC; 2, 6, 24 hr.
For experiment [3], the system named is Bacteroides spp. (B. fragilis ATCC 25285, B. vulgatus, B. ovatus MMX 3503). Conditions: cited from earlier work.
Another experiment has as its system Streptococcus spp. The experiment is described as follows: Spontaneous mutation frequency assay. Format: cell-based. As to conditions: selection at 4× and 8× MIC. The method, then: Initial values of the MIC were determined by agar dilution in accordance with guidelines from the Clinical and Laboratory Standards Institute (CLSI; (1) “Methods for Dilution Antimicrobial Susceptibility Tests for Bacteria That Grow Aerobically; Approved Standard; 11th ed.,” CLSI standard M07, 2018; (2) “Methods for Antimicrobial Susceptibility Testing of Anaerobic Bacteria; Approved Standard—Eighth Edition,” CLSI document M11-A8, 2012.).
The agar plates were prepared by mixing a ratio of 1.0 mL of concentrated drug to 49.0 mL of the appropriate molten (47° C.) agar; the drug-supplemented agar was mixed, poured into 15-by-150 mm petri dishes and allowed to solidify and dry at room temperature prior to inoculation. […] Each plate was allowed to cool at room temperature for at least 1 hr.
The isolates were streaked onto the appropriate agar medium and incubated for 20 hr (aerobes) or 48 hr (Bacteroides under anaerobic conditions). Using a sterile swab, several well-isolated colonies were removed and resuspended in sterile saline at a heavy cell density. Each plate was inoculated with 0.5 mL of the cell suspension (each test concentration was inoculated in duplicate). The target inoculum for each spontaneous mutation plate was 10^9-10 CFU. In addition, a portion of the inoculum from each isolate was enumerated by making dilutions, spreading on agar and counting colonies.
Once the inoculum was absorbed into the agar, the plates were incubated at 35° C. Aerobes were examined at 24 and 48 hr, and resulting colonies were counted. Bacteroides were incubated anaerobically for 48-72 hr in the anaerobe chamber and colonies were counted.
Colony counts from plates used to enumerate the initial inoculum density and from the resulting spontaneous mutation frequency test plates were determined. The inoculum size was calculated as CFU inoculated per plate. The spontaneous mutation frequency was calculated using the counts from duplicate spontaneous mutation assay test plates as follows:
If there were no colonies on the antibiotic selection plates, the spontaneous mutation frequency was reported as less than the frequency observed with one colony to indicate that the spontaneous mutation frequency was less than the limit of detection (one CFU). […] The mutation prevention concentration (MPC) was reported as the lowest concentration for which no mutants were selected.

Experiment [4] has as its system Clostridium spp. clinical isolates. Nature of the experiment: MIC distribution against clinical isolates. Format: cell-based. Conditions: 10 Clostridium spp. isolates. An excerpt:
(n=4 C. sporogenes, n=2 C. ramosum and n=4 C. innocuum) clinical isolates (μg/mL).
As used herein, “minimum inhibitory concentration” or “MIC” refers to the lowest concentration of an antimicrobial agent, for example, an antimicrobial agent as described herein, required to inhibit the growth of an organism. […] “MIC90” represents the MIC value at which ≥90% of the strains within a test population are inhibited; the 90th percentile.
Many susceptibility testing methods are known in the art and can be used as described herein (see, e.g., Jorgensen and Ferraro (2009) Clinical Infectious Diseases 49:1749-1755; and Maurer et al. (2017) Infectious Disease Reports 9:6839; the entire contents of each of the foregoing are incorporated herein by reference). For example, antimicrobial susceptibility can be determined using conventional culture based methods such as the broth or agar dilution test. In these dilution tests, the bacterial isolate of interest is inoculated onto different media that include serial dilutions of an antimicrobial agent, and incubated under appropriate conditions (e.g., overnight at 37° C.) to allow for growth to occur. Following the incubation period, the media is examined to determine bacterial growth. The lowest concentration of antibiotic that prevents growth represents the minimal inhibitory concentration (MIC). Broth dilution tests can be miniaturized and mechanized allowing for reproducibility and high throughput.

Another experiment deals with Enterobacteriaceae. Conditions: cited from earlier work.
The test system of experiment [5] is E. coli spontaneous mutants. As to conditions: E. coli ATCC 25922; CLSI QC range shown in parentheses; cited from earlier work.
For experiment [6], the system named is B. fragilis ATCC 25285. The experiment is described as follows: Time-kill assay. Type of experiment: cell-based, Bacteroides fragilis. Conditions: 2×, 4×, 8× MIC; 2, 6, 24, 48 hr.
For experiment [7], the system named is B. fragilis ATCC 25285. Conditions: B. fragilis MMX 123 ATCC 25285; cited from earlier work.
The mark [8] stands for this setting: 29 Bacteroides non-fragilis clinical isolates.
[9] abbreviates: 10 Clostridium spp. clinical isolates.
The mark [10] stands for this setting: B. ovatus MMX 3504 (so in the source).

As for `Cc1ncc([N+](=O)[O-])n1CCO` [MTZ], the “MIC, CLSI QC range” value in experiment [1] was “(0.25-2) μg/mL”. In the experiment on Bacteroides non fragilis (setting [8]), the “% I” value was 3%, the “% S” value was determined as 97%, the MIC50 is 0.5 µg/mL (≈ 2.92 µM) and the MIC90 stood at 2 µg/mL (≈ 11.7 µM). Moreover, the Mode with Bacteroides non fragilis (setting [8]) was found to be 0.5 µg/mL. Besides, in the experiment on Clostridium spp. (setting [9]), the “% S” value amounted to 100%, the MIC50 was determined as 1 µg/mL (≈ 5.84 µM), the MIC90 was determined as 1 µg/mL (≈ 5.84 µM) and the MIC range fell in the range of 0.12 to 2 µg/mL. Also, the Mode in the experiment on Clostridium spp. (setting [9]) was 1 µg/mL.
As for `CO/N=C(\C(=O)N[C@@H]1C(=O)N2C(C(=O)O)=C(CSc3nc(=O)c(=O)[nH]n3C)CS[C@H]12)c1csc(N)n1` [ceftriaxone], the MIC was above 128 µg/mL against B. ovatus MMX 3503 (Bacteroides ovatus, MMX3503, B. ovatus MMX 3504 (so in the source)); above 128 µg/mL with B. ovatus MMX 3503 (Bacteroides ovatus, MMX3503, broth microdilution); 128 µg/mL (≈ 231 µM) with B. ovatus MMX 3503 (broth microdilution). The “CLSI QC range (agar MIC)” value was 0.03 to 0.12 µg/mL in [2] and 32 to 128 µg/mL in [3]. Moreover, the “time-kill kinetics outcome (bactericidal = ≥3 log reduction in CFU per mL)” value in the experiment with S. pyogenes ATCC 49399 is “bactericidal effect at 4× and 8×MIC at 24 hr”; in the experiment on E. coli ATCC 25922, “bactericidal at 8×MIC at 24 hr”. Further, the “CLSI QC range (MIC)” value with S. pneumoniae ATCC 49619 was “(0.03-0.12) μg/mL”. Further, in the experiment on Bacteroides non fragilis, the isolates resistant stood at 72%. For the same compound, the “isolates with intermediate resistance” value in the experiment with Bacteroides non fragilis is given as 3%. The “% I” value with Bacteroides non fragilis (setting [8]) is recorded as 3%. For the same compound, the “% R” value in the experiment on Bacteroides non fragilis (setting [8]) was 72%. Moreover, the figures for the “% S” value with Bacteroides non fragilis (setting [8]), in the experiment with Clostridium spp. (setting [9]) and in the experiment on Enterobacteriaceae were 24%, 100% and 87.5%, respectively. Moreover, the MIC50 was above 128 µg/mL in the experiment with Bacteroides non fragilis (setting [8]); above 128 µg/mL in the experiment on Bacteroides non fragilis (Bacteroides, read-out: MIC50); 8 µg/mL (≈ 14.4 µM) against Clostridium spp. (setting [9]); 8 µg/mL (≈ 14.4 µM) in the experiment with Clostridium spp. (Clostridium); at most 1 µg/mL in the experiment on Enterobacteriaceae. The MIC90 against Bacteroides non fragilis (setting [8]) was above 128 µg/mL; with Bacteroides non fragilis (Bacteroides, read-out: MIC90) it was above 128 µg/mL; against Clostridium spp. (setting [9]), 16 µg/mL (≈ 28.9 µM); in the experiment with Clostridium spp. (Clostridium), 16 µg/mL (≈ 28.9 µM); in the experiment on Enterobacteriaceae, 8 µg/mL (≈ 14.4 µM). Further, the MIC range with Bacteroides non fragilis (setting [8]) fell in the range of 1 to 128 µg/mL; against Clostridium spp. (setting [9]) it was 0.5 to 16 µg/mL. Also, the Mode in the experiment on Bacteroides non fragilis (setting [8]) was above 128 µg/mL; in the experiment on Clostridium spp. (setting [9]), 16 µg/mL. Also, the isolates susceptible entry with Clostridium spp. is “all the isolates were susceptible”. Further, the Spontaneous Mutation Frequency with Streptococcus spp. is listed as ≤ 9.52×10^−10. Also, the “Cumulative percentage of isolates inhibited at MIC” value in experiment [4] (MIC 4 μg/mL) was 40.0%. For the same compound, in [5], the “MIC, CLSI QC range” value is “(0.03-0.12)^1 μg/mL”.
As for `CO[C@H]1/C=C/O[C@@]2(C)Oc3c(C)c(O)c4c(O)c(c5c(nc6cc(C)ccn65)c4c3C2=O)NC(=O)/C(C)=C\C=C\[C@H](C)[C@H](O)[C@@H](C)[C@@H](O)[C@@H](C)[C@H](OC(C)=O)[C@@H]1C` [rifaximin], the MIC against B. ovatus MMX 3503 (setting [10]) was 2 µg/mL (≈ 2.54 µM); against B. ovatus MMX 3503 (broth microdilution), 1 µg/mL (≈ 1.27 µM). Besides, the “time-kill kinetics outcome (bactericidal = ≥3 log reduction in CFU per mL)” value with S. pyogenes ATCC 49399 was “bacteriostatic effect against this organism at 2×, 4×, and 8× the MIC”; in the experiment with B. fragilis ATCC 25285 [6], “did not show evidence of killing”; in the experiment on E. coli ATCC 25922, “bacteriostatic effect at 2-6 hr with regrowth between 6 and 24 hr”. For the same compound, the MIC50 is 0.12 µg/mL (≈ 0.153 µM) in the experiment with Bacteroides non fragilis, 0.12 µg/mL (≈ 0.153 µM) with Bacteroides non fragilis (setting [8]), above 64 µg/mL against Clostridium spp. and above 64 µg/mL in the experiment with Clostridium spp. (setting [9]). For the same compound, the MIC90 against Bacteroides non fragilis was 0.5 µg/mL (≈ 0.636 µM); in the experiment on Bacteroides non fragilis (setting [8]) it was 0.5 µg/mL (≈ 0.636 µM); in the experiment with Clostridium spp., above 64 µg/mL; against Clostridium spp. (setting [9]), above 64 µg/mL. In addition, in the experiment on Bacteroides non fragilis, the “relative activity among drugs tested” value is “most active”. Moreover, the MIC range against Bacteroides non fragilis (setting [8]) lay in the range of 0.03 to 0.5 µg/mL. Also, the Mode in the experiment with Bacteroides non fragilis (setting [8]) was 0.12 µg/mL; with Clostridium spp. (setting [9]), above 64 µg/mL. The values for the Spontaneous Mutation Frequency in the experiment on Streptococcus spp. and in the experiment on Streptococcus spp. (listed as rifampin) were ≥ 2.77×10^−8 and ~10^−8, respectively. The “Cumulative percentage of isolates inhibited at MIC” value in experiment [4] (MIC 8 μg/mL) is 20.0%. The “Number of test isolates at MIC” value in experiment [4] (MIC 8 μg/mL) came out at 1.
For the compound `CN[C@H](CC(C)C)C(=O)N[C@H]1C(=O)N[C@@H](CC(N)=O)C(=O)N[C@H]2C(=O)N[C@H]3C(=O)N[C@H](C(=O)N[C@H](C(=O)O)c4cc(O)cc(O)c4-c4cc3ccc4O)[C@H](O)c3ccc(c(Cl)c3)Oc3cc2cc(c3O[C@@H]2O[C@H](CO)[C@@H](O)[C@H](O)[C@H]2O[C@H]2C[C@](C)(N)[C@H](O)[C@H](C)O2)Oc2ccc(cc2Cl)[C@H]1O` [vancomycin, Vancomycin], in the experiment on B. ovatus MMX 3503 (Bacteroides ovatus, MMX3503, B. ovatus MMX 3504 (so in the source), read-out: MIC), the MIC was above 16 µg/mL. In the experiment on S. pneumoniae ATCC 49619, the “CLSI QC range (MIC)” value is reported as “(0.12-0.5) μg/mL”.
Regarding “piperacillin/tazobactam [piperacillin-tazobactam]”, the MIC against B. ovatus MMX 3503 (setting [10]) is above 16 µg/mL. In addition, the “CLSI QC range (MIC)” value in the experiment on B. fragilis ATCC 25285 [7] was “(4-16) μg/mL”.

As usually defined, the MIC50 is the lowest concentration that inhibits either 50% of growth or 50% of the strains tested, depending on the study. A word on the MIC90: it is the lowest concentration that inhibits either 90% of growth or 90% of the strains tested, depending on the study. What is called MIC is the smallest concentration in the dilution series that meets the test's criterion for growth inhibition.

Source of the values: patent publication US20210386367A1, “DEVICES AND SYSTEMS FOR GASTROINTESTINAL MICROBIOME DETECTION AND MANIPULATION” (Progenity, Inc., priority 2018, published 2021).
